In experiment [1] the test system is peripheral blood mononuclear cells (PBMC). Put plainly: Antibody (IgG, IgM) production by SAC/IL-2-stimulated peripheral blood mononuclear cells. In kind it is cell-based. To be noted: Homo sapiens, 144 h, 6 days incubation; for inhibition at 0.1 µM: final concentration 0.1 µM; for inhibition at 1 µM: final concentration 1 µM; for inhibition at 10 µM: final concentration 10 µM. As for the experimental part: Heparinized peripheral blood derived from a healthy person was diluted 2-fold with phosphate buffered saline (PBS) and applied to density-gradient centrifugation using Ficoll-Paque (Pharmacia Biotech) to give peripheral blood mononuclear cells (PBMC). After isolation, PBMC was rinsed with PBS, and suspended in RPMI-1640 medium (K.K. Nikken Seibutsu Igaku Kenkyujo) containing 10% heat-inactivated fetal calf serum (1 × 10^6 cells/mL), followed by addition of 0.05% Staphylococcus aureus Cowan-I (SAC, CALBIOCHEM) and 10 units/mL interleukin-2 (IL-2, Genzyme) for stimulation, as well as by simultaneous addition of Compound No. 130 (final concentration: 0.1, 1 and 10 µM). The mixtures were incubated on a 96-well microtest plate at 37°C for 6 days in an atmosphere of 95% air and 5% CO2. After incubation, supernatants were collected and quantitatively measured for IgG and IgM levels by an enzyme immunoassay (a sandwich immunoassay method using two antibodies).
IgG assay: A preparation containing 40 µg/mL anti-human IgG antibody (F(ab')2, Cappel) in 50 mM sodium carbonate-sodium bicarbonate buffer (pH 9.6) was added to each well of a 96-well microtest plate (Nunc) at a rate of 100 µL/well. The plates were allowed to stand overnight at 4°C, and then rinsed 3 times with PBS containing 0.05% Tween 20. A 4-fold dilution of BlockAce (Snow Brand Milk Products Co., Ltd.) in PBS was added to the 96-well microtest plates (300 µL/well) which were then allowed to stand overnight at 4°C, followed by rinsing similarly. Next, a culture supernatant was serially diluted with a 4-fold dilution of BlockAce in PBS and a series of dilutions were added at a rate of 100 µL/well to the 96-well microtest plates which were then allowed to stand at 25°C for 1 hour, followed by rinsing similarly. Thereafter, a 2500-fold dilution of peroxidase-labeled mouse anti-human IgG antibody (Zymed) was added at a rate of 100 µL/well to the 96-well microtest plates which were then allowed to stand at 25°C for 1 hour, followed by rinsing similarly. A coloring kit for peroxidase (Sumitomo Bakelite) was added at a rate of 100 µL/well to each well which was subjected to an enzyme reaction for 15 to 30 minutes at room temperature, followed by addition of 1 N hydrochloric acid at a rate of 100 µL/well. The resultant colored product was measured for an optical density (OD) at 450 nm for a test wavelength and at 650 nm for a reference wavelength in a microplate reader. IgG levels are calculated using a calibration curve of a standard IgG.
IgM assay: The procedures for the IgG assay as aforementioned were repeated except that the anti-human IgG antibody (F(ab')2) was replaced to anti-human IgM antibody (F(ab')2, Cappel) and the peroxidase-labeled mouse anti-human IgG antibody also to peroxidase-labeled mouse anti-human IgM antibody (Zymed; 2,000-fold dilution). IgM levels are obtained in the same manner as for the IgG assay.

Experiment [2] has as its system allergic inflammation models (air pouch models). Put plainly: Allergic inflammation model (air pouch model): leukocyte infiltration. In kind it is in vivo, rats. As to conditions: 10 mg/kg or 30 mg/kg, into the air pouch at the second challenge or systemically 30 minutes prior; exudate 8 hours after second challenge; dexamethasone 0.1 mg/kg as comparison. As for the experimental part: Compound No. 130 was dissolved in physiological saline to make the final concentration 2.5 mg/mL (equal to 10 mg/kg) or 7.5 mg/mL (equal to 30 mg/kg) and administered into an air pouch of animals or intraperitoneally at a dose of 4 mL/kg. Dexamethasone was also dissolved in physiological saline to make the final concentration 25 µg/mL (equal to 0.1 mg/kg) and administered into an air pouch of animals at a dose of 4 mL/kg. Administration into such an air pouch was conducted simultaneously with the second challenge while the intraperitoneal administration was 30 minutes prior to the second challenge. Acetylated bovine serum albumin diazo-coupled with arsanilic acid (ABA-AcBSA) was prepared according to the Ouchi et al. and Tabachnick et al. methods as disclosed in Ouchi et al., "Seibutsu Yakukagaku Jikken Koza, Ensho To Allergy (Inflammation and Allergy) I-2", pp.194 to 206, Hirokawa Publishing Co., Japan and Tabachnick et al., The Journal of Biological Chemistry, 234: 1726- 1730, 1959, and mixed with a Freund's complete adjuvant (Difco) at an equal ratio. The mixture was treated using a connection-type glass syringe to form an emulsion which was used as a sensitizing solution. […] The retrieved exudates were measured by a dye-exclusion method using a haematocytometer and the number of exudated leukocytes were counted.

Setting [3] is: read-out: IgG production of PBMC, percent inhibition.
Where [4] appears, read: read-out: IgM production of PBMC, percent inhibition.

Read-outs that look alike come from different tables or passages of the source.

As to `CNC(=O)[C@H](Cc1ccc(NC(=N)N)cc1)NC(=O)[C@H](CC(C)C)C(CCCc1ccccc1)C(=O)NO` (single isomer, unassigned) [Compound No. 130, N-[4-(N-Hydroxyamino)-2(R)-isobutyl-3(R or S)-(3-phenyltrimethylene)succinyl)-L-4'-guanidophenylalanine-N-methylamide 1 acetate], in experiment [1] (setting [3]), the inhibition (in general, the drop in the measured response relative to a control, in per cent) at 0.1 µM was 84.5%; the inhibition at 1 µM amounted to 96.1%; the inhibition at 10 µM worked out at 96%. In experiment [1] (setting [4]), the inhibition at 0.1 µM turned out to be 32.9%, the inhibition at 1 µM came to 68.1% and the inhibition at 10 µM was 63.4%. The “infiltration of leukocytes into an air pouch (FIG. 14)” value in experiment [2] was “significantly inhibited”.

These data come from patent EP1101492A1, “NOVEL REMEDIES FOR ALLERGIC DISEASES” (FUJI YAKUHIN KOGYO KABUSHIKI KAISHA, priority 1998, dated 2000).
